# Data reported in patent US5215916A, “Super glucocorticoid receptors: receptors with increased affinity and specificity for glucocorticoid steriods” (priority 1991, dated 1993).
# Positions count from the first letter of the chain named.
# How the values were obtained:
# [1] = target: T1, C656G mutant glucocorticoid receptor (Rattus norvegicus, UniProt P06536, C656G/D98G); test: Competition binding assay with [3H]Dex, COS-7 cytosol, C656G receptor; design: Thus the full length receptor was removed from the VARO vector with BamHI and inserted into the SVL vector; expressed in transfected cells; host or cells: COS-7 (cytosol)
# T1 sequence (P06536 1-795 D98G/C656G): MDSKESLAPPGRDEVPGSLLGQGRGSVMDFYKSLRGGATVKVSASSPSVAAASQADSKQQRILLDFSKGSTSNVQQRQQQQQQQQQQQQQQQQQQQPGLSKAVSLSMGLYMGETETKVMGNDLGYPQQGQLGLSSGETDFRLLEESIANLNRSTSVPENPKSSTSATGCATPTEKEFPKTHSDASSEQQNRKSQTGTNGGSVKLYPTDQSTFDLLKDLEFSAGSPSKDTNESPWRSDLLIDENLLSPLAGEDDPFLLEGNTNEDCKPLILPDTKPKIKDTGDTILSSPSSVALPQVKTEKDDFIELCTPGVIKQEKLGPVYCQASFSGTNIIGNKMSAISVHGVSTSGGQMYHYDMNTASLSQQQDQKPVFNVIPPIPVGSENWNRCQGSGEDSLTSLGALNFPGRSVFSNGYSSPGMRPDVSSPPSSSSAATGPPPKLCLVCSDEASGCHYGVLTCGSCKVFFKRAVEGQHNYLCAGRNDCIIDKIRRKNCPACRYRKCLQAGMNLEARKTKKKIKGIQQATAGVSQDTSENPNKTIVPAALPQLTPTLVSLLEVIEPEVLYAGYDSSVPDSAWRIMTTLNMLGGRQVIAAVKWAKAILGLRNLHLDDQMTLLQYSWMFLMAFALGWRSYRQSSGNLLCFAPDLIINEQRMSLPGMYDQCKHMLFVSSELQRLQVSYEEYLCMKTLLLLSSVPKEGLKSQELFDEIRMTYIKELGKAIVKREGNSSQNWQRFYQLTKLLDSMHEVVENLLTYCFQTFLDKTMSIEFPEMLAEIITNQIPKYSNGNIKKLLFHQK
# Description: (§1) Monolayer cultures of COS-7 cells were grown in DMEM (Gibco) supplemented with 5% fetal bovine serum (FBS) (Biofluids) at 37° C. in a 5% CO2 incubator. Standard calcium phosphate transfection methods were used to introduce the wild type and mutant receptor expression vectors (pSVL) into COS-7 cells (100 mm plates [Costar] at a cell density of about 10^6 /plate were each treated with 10 μg of plasmid DNA). After ~16 hrs of incubation at 37° C. in a 5% CO2 incubator, the excess calcium phosphate and precipitate were removed by washing with phosphate buffered saline (PBS). The cells were incubated at 37° C. for another ~48 hr in DMEM/ 5% FBS and harvested by trypsinization followed by centrifugation (for 10 min at 1570 ×g) and washing 3 times with PBS. The washed cells were stored at -80° C. until used.
# COS-7 cell cytosol containing the steroid-free receptors was prepared by cell lysis at -80° C. and centrifugation at 15,000 ×g and labeled as described for HTC cells (S. S. Simons and P. A. Miller, Biochem 23:6876-6882 (1984)). Briefly, 30% cytosol solutions containing ~21 mM Na2 MoO4 were prepared with three parts COS-7 cell cytosol, 2 parts pH 9.5 TAPS buffer, and 5 parts pH 8.8 TAPS buffer. The total EtOH in each experiment was kept constant and at a level of ≤1%. […] After incubation for 2.5 hr, the [^3 H]Dex-Mes-labeled solutions were quick-frozen at -78° C. for subsequent SDS-polyacrylamide gel electrophoresis analysis. The specifically bound [^3 H]Dex was determined by first adding a 10% dextran-coated charcoal solution (added volume =20% of reaction solution volume) to remove free steroid and then subtracting the nonspecific binding seen in the presence of excess nonradioactive Dex.
# (§2) Duplicate aliquots (72 μl) of COS-7 cell cytosol (33.5% in pH 8.8 TAPS/27 mM Na2 MoO4 buffer) were treated with 4 μl each of [^3 H]Dex (in pH 8.8 TAPS buffer) and various concentrations of non-radioactive competing steroid (in 20% EtOH in pH 8.8 TAPS buffer) (final concentration of [^3 H]Dex ≈3 ×10^-8 M). The average specific binding was determined after 2.5 or 24 hr of incubation as described above, expressed as percentage of the non-competed control and plotted versus the log10 of the concentration of the competing steroid.
# The specificity of steroid binding was determined by Rodbard correction (Rodbard, 1973) of the data from a competition binding assay (S. S. Simons et al., Biochem. Biophys. Res. Comm. 86:793-800 (1979); Miller and Simons, 1988). The initial data were collected from 2.5 hr binding assays because of concerns about the stability of the receptors over longer times.
# [2] = target: T2, C640S mutant glucocorticoid receptor (Rattus norvegicus, UniProt P06536, C640S/D98G); test: Competition binding assay with [3H]Dex, COS-7 cytosol, C640S receptor
# T2 construct: Thus the full length receptor was removed from the VARO vector with BamHI and inserted into the SVL vector; expressed in transfected cells; host or cells: COS-7 (cytosol)
# T2 sequence (P06536 1-795 D98G/C640S): T1 sequence (P06536 1-795 D98G/C656G) with C640S, G656C
# Description: as §1
# COS-7 cell cytosol containing the steroid-free receptors was prepared by cell lysis at -80° C. and centrifugation at 15,000 ×g and labeled as described for HTC cells (S. S. Simons and P. A. Miller, Biochem 23:6876-6882 (1984)). […] The specifically bound [^3 H]Dex was determined by first adding a 10% dextran-coated charcoal solution (added volume =20% of reaction solution volume) to remove free steroid and then subtracting the nonspecific binding seen in the presence of excess nonradioactive Dex.
# as §2
# The specificity of steroid binding was determined by Rodbard correction (Rodbard, 1973) of the data from a competition binding assay (S. S. Simons et al., Biochem. Biophys. Res. Comm. 86:793-800 (1979); Miller and Simons, 1988). […]
SMILES,Relative Ka of Steroid Binding to Receptor [1],Relative Ka of Steroid Binding to Receptor [2],"effect of replacement of Cys-656 with glycine on relative affinity ([1]; C656G vs wild type, compared with effect seen for C661S, 2.5 hr incubation)","change in absolute affinity for the glucocorticoid receptor as a result of C656G mutation ([1]; C656G vs wild type, from Table 1B and Table 2, aldosterone only ""perhaps"")"
CC#C[C@]1(O)CC[C@H]2[C@@H]3CCC4=CC(=O)CCC4=C3[C@@H](c3ccc(N(C)C)cc3)C[C@@]21C [RU486],2.5 ± 0.7,6.8 ± 2.2,–,–
"C[C@]12CC[C@@H]3c4ccc(O)cc4CC[C@H]3[C@@H]1CC[C@@H]2O [17β-Estradiol, 17β-estradiol]",0.0017 ± 0.0006,0.010 ± 0.007,–,–
"C[C@]12CCC(=O)C=C1CC[C@@H]1[C@@H]2[C@@H](O)C[C@]2(C=O)[C@@H](C(=O)CO)CC[C@@H]12 [Aldosterone, aldosterone]",–,0.18 ± 0.002,less of an effect,decreased
